A short description of assay [1]: Inhibition of TNF-alpha-induced NF-kappaB activation in human HeLa cells. The format is cell-based.
In the next assay the test system is HeLa. Briefly: Cytotoxicity against human HeLa cells by MTT assay. The format is functional, cell-based. In general terms: Tetrazolium assays rely on reduction of a dye to a coloured formazan, in cell work by metabolically active cells.
Another assay has as its system AGS. Put plainly: Cytotoxicity against human AGS cells by MTT assay. The format is functional, cell-based.
Assay [2] concerns the target Hypoxia inducible factors; HIF-1-alpha, HIF-2-alpha (Homo sapiens, UniProt Q16665+Q99814). Briefly: Inhibition of hypoxia-induced HIF1 activation in human AGS cells by reporter gene assay. It counts as cell-based. (In a reporter assay the amount or activity of a reporter protein is the signal.)

By IC50 is commonly meant the concentration that inhibits the measured activity by half. Read a high IC50 as weaker potency.

Structures are written as SMILES.

`C=C[C@@](C)(/C=C/c1ccc(OC)cc1)CCC=C(C)C`: the IC50 in assay [1] was 5.7 µM; in the assay with HeLa, over 50 µM; in the assay on AGS, 55.8 µM; in assay [2], 8.7 µM.
For the molecule `C=C[C@@](C)(/C=C/c1ccc(OCC)cc1)CCC=C(C)C`, the IC50 in assay [1] was 12.2 µM; with HeLa, over 50 µM; in the assay with AGS, over 50 µM; in assay [2] it was 26.3 µM.
For the molecule `C=C[C@@](C)(/C=C/c1ccc(O)cc1)CCC1OC1(C)C` (some centres not stated), the IC50 (in assay [1]; in the assay with HeLa; in the assay with AGS; in assay [2]) was over 50 µM in each case.
Regarding `C=C[C@@](C)(/C=C/c1ccc(O)cc1)CCC(O)C(C)(C)O` (some centres not stated), the half-maximal inhibitory concentration (IC50) (in assay [1]; in the assay with HeLa; in the assay on AGS; in assay [2]) was over 50 µM throughout.
In the case of `CO[C@H]1/C=C\C=C(/C)C(=O)NC2=CC(=O)C(NCCN(C)C)=C(C[C@@H](C)C[C@H](OC)[C@H](O)[C@@H](C)/C=C(\C)[C@@H]1OC(N)=O)C2=O` [ALVESPIMYCIN], the IC50 in assay [1] stood at 0.15 µM; with HeLa it was 2.06 µM; in the assay with AGS, 16 µM; in assay [2], 0.0036 µM.
Take `C=C[C@@](C)(/C=C/c1ccc(OC(C)=O)cc1)CCC=C(C)C` [ACETYLBAKUCHIOL]: the IC50 is 5.7 µM in assay [1], 18.1 µM with HeLa, 26.8 µM in the assay on AGS and 5.7 µM in assay [2].
Consider `C=C[C@@](C)(/C=C/c1ccc(O)cc1)CCC=C(C)C` [BAKUCHIOL], for which the IC50 in assay [1] was 6.9 µM; in the assay with HeLa it was 11 µM; in the assay with AGS, 15.3 µM; in assay [2], 6.1 µM.
On the same counts, the results for `C=C[C@@](C)(/C=C/c1ccc(OC(C)(C)[C@@H](O)CC[C@@](C)(C=C)/C=C/c2ccc(O)cc2)cc1)CCC=C(C)C` are 12.2 µM, over 50 µM, over 50 µM and over 50 µM.

(Values after ChEMBL document CHEMBL1144744, “Hypoxia-inducible factor-1 and nuclear factor-kappaB inhibitory meroterpene analogues of bakuchiol, a constituent of the seeds of Psoralea corylifolia” (Bioorg Med Chem Lett, 2008).)
